Assay results reported in patent US7259154B2, “Pyrrolopyrimidines” (Aventis Pharmaceuticals Inc., priority 2001, dated 2007).

| SMILES | melting point |
| --- | --- |
| COc1ccc2c(c1)c(-c1cc3c(OC)ncnc3[nH]1)cn2C [Example 10, 4-Methoxy-6-(5-methoxy-1-methyl-1H-indol-3-yl)-7H-pyrrolo[2,3-d]pyrimidine] | 184 °C |
| COc1ccc2[nH]cc(-c3cc4c(OC)ncnc4[nH]3)c2c1 [Example 11, 4-Methoxy-6-(5-methoxy-1H-indol-3-yl)-7H-pyrrolo[2,3-d]pyrimidine] | > 260 °C |
